{"source": "paper PMC3439875", "about": "(Nucleic Acids Research, 2012)", "target": "variola topoisomerase (Variola virus, UniProt P32989)", "sequence (P32989 whole entry, looked up)": "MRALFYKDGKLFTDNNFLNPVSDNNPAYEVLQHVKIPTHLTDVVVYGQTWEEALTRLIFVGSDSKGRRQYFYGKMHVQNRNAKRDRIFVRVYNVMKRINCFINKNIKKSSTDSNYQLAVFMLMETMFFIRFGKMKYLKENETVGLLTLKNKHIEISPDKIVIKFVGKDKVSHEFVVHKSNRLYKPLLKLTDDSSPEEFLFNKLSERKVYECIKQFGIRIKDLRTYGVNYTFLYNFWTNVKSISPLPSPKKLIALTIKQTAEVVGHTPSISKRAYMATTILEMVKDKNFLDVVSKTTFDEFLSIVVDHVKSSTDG", "assay_type": "biochemical", "data": [{"smiles": "CCOC(=O)c1c(O)c2cc(-c3cccc(OC)n3)cnc2n(O)c1=O", "note": "[Compound 7]", "values": [{"measurement": "Inhibition of variola topoisomerase activity", "value": "no inhibitory activity"}]}]}
